{"source": "patent US11459375B2", "about": "“Cyclic peptides for the treatment of Graves' disease” (advanceCOR GmbH, priority 2017, dated 2022)", "key": {"[1]": {"tested_on": "Ad-TSHR-immunized mice", "experiment": "thyroid size at end of experiment in Graves' disease mouse model", "type": "in vivo, BALB/c mice", "conditions": "1 mg/kg IV 4-weekly", "procedure": "Representative images are shown. In FIG. 4B, the effects of peptide therapy on thyroid sizes were investigated at the end of the experiment. The measurements were carried out in Ad-TSHR-immunized mice treated by either 4-weekly injections with vehicle (0.9% NaCl, “Graves' no therapy”, n=25 mice), or administrations of 1 mg/kg body weight of peptide of the invention 836 (12 mice), or of peptide 829 (13 mice), or of TSHR-Fc (18 mice), or of control peptide 835 (13 mice). In addition, age-matched immunologically naïve unimmunized mice (“healthy”, 19 animals) were investigated. The mean thyroid sizes in mm^3 are shown with SEM. Differences between groups were tested by AVOVA followed by post hoc LSD testing. ** indicates statistical significance (p<0.001) compared to the TSHR-immunized group treated with only NaCl (“Graves' no therapy”).\n(§1) The study protocol used three 3-weekly immunizations (“initiation”) and followed by a “maintenance” phase with further regular 4-weekly boosts until the 9th immunisation, as described before (22). Mice were randomly assigned to therapeutic groups. Therapy (either 1 mg/kg body weight peptides or 0.9% NaCl vehicle control) was given 1 week after the 4th immunization by IV injection into a tail vein, and then continued at 4-weekly intervals, as described before for the treatment of anti-β1AR (16). The fusion protein TSHR-Fc was given IV at identical times at doses of 1 mg/kg, but had to be applied together with the histamine receptor blocker clemastin (Tavegil®) at a dose of 0.02 mg per mouse (25 g body weight) to avoid clinical symptoms of allergic reaction, which had been observed in initial pilot studies of TSHR-Fc administration in mice.\nAfter euthanasia, dissection of the thyroid glands was performed under a stereomicroscope, as described before (22). Briefly, cross cuts at the level above the larynx and below the seventh cartilage ring were made and the glands with the tracheae and oesophagi were removed from the necks. Tissue blocks were kept in 4% neutral para-formaldehyde (PFA), washed in PBS 3 times and embedded in optimum cutting temperature (OCT) formulation (Tissue-Tek® O.C.T.™ compound, VWR Chemicals, Leuven, Belgium). Consecutive 5 μm-thick cross sections were cut at a fixed distance of 500 μm using a Leica microtome CM 1850 Cryostat (temperature at −19° C.) and mounted on Thermo Polysine slides (Thermo Scientific, Cat J2800AMNZ). […] Thyroid volumes (mm^3) were calculated from the sum of the areas of each section over the whole cutting region. Myocardial volumes (mm^3) were calculated in a similar way as described for thyroid glands from the sum of the areas of each section over whole cutting region (5 to 6 slides, depending on respective size of the hearts). […]"}, "[2]": {"tested_on": "Ad-TSHR-immunized mice", "experiment": "heart weights upon necropsy", "type": "in vivo, BALB/c mice", "conditions": "1 mg/kg IV 4-weekly, necropsy at end of experiment", "procedure": "(§2) In FIG. 7 the effect of the peptide therapy on heart rates at various times during the experiment (A), and on heart weights (B) and cardiac ventricular volumes (C) at the end of the experiment were evaluated in all animals. The measurements were carried out in Ad-TSHR-immunized mice treated by either 4-weekly injections with vehicle (0.9% NaCl, “Graves' no therapy”, n=25 mice), or administrations of 1 mg/kg body weight of peptide of the invention 836 (12 mice), or of peptide 829 (13 mice), or TSHR-Fc (18 mice). In addition, age-matched immunologically naïve unimmunized mice (“healthy”, 19 animals) were investigated. Data are represented as mean±SEM. Significance over time was tested by analysis of variance (ANOVA) of groups at given time points, and controlled by ANOVA for repeated measurements within one group, followed by LSD post-hoc testing. *p<0.05, and **p<0.005, compared to the TSHR-immunized group treated with only NaCl (“Graves' no therapy”).\nDue to unavailability of some fine histological sections, analysis of this parameter in mice treated with other peptides could unfortunately not be completed."}, "[3]": {"type": "physicochemical", "text": "Peptide 836 is a 24-meric cyclic peptide corresponding to the eighth TSHR LRD loop, and peptide 829 (also 24-meric) to the first loop of the TSHR LRD."}, "[4]": {"tested_on": "Ad-TSHR-immunized mice", "experiment": "serum thyroxin (T4) levels in Graves' disease mouse model", "type": "in vivo, BALB/c mice", "conditions": "1 mg/kg IV 4-weekly, after start of therapy (week 11)", "procedure": "In FIG. 5 the effects of peptide therapy on serum thyroxin levels were evaluated. The measurements were carried out in Ad-TSHR-immunized mice treated by either 4-weekly injections with vehicle (0.9% NaCl, “Graves' no therapy”, n=25 mice), or administrations of 1 mg/kg body weight of peptide of the invention 836 (12 mice), or of peptide 829 (13 mice), or TSHR-Fc (18 mice), or of control peptide 835 (13 mice). In addition, age-matched immunologically naïve unimmunized mice (“healthy”, 19 animals) were investigated. Data are represented as means±SEM. Significance over time was tested by analysis of variance (ANOVA) of groups at given time points, and controlled by ANOVA for repeated measurements within one group, followed by LSD post-hoc testing. *p<0.05, and **p<0.005, compared to the TSHR-immunized group treated with only NaCl (“Graves' no therapy”).\nas §1\nTotal thyroxine (T4) was measured by immunoassay kit (#T4044T-100, Calbiotech Inc, Austin, Calif.) in duplicate determination."}, "[5]": {"tested_on": "Ad-TSHR-immunized mice", "experiment": "ECG heart rates in Graves' disease mouse model", "type": "in vivo, BALB/c mice", "conditions": "1 mg/kg IV 4-weekly, ECG under anaesthesia", "procedure": "as §2\nWhen mice were subjected to anaesthesia for immunisation, their heart function was monitored with an electrocardiogram (ECG amplifier module, Harvard Apparatus, Hugo Sachs electronics) and recorded with a special software, which allows to determine the heart rate from the ECG reading (Haemodyn, Hugo Sachs electronics). ECG was also performed in anaesthesia before animals were euthanized for histological exam at the end of the study."}}}
{"sequence": "NAFQGLCNETLTLKLYNNGFTSVQ [peptide 835]", "values": [{"measurement": "thyroid size", "setting": "[1]", "value": "did not show any effects"}, {"measurement": "heart weights", "setting": "[2]", "value": "did not show any effects"}, {"measurement": "solubility in water", "setting": "[3]", "value": "easily soluble in water"}, {"measurement": "serum thyroxin (T4) levels", "setting": "[4]", "value": "did not result in any effects"}, {"measurement": "heart rate", "setting": "[5]", "value": "did not show any effects"}]}
